Marks after values point to notes of the source that are not given here.
Columns and labels:
[1] = tested on: osteopenic ovariectomized rats; assay: Static and dynamic histomorphometry of L-1 vertebra; format: in vivo, Sprague-Dawley rats; conditions: OVX rats; for BFR/BS (bone formation rate) / BFR/TV (bone formation rate) / BV/TV (cancellous bone volume) / MAR (mineral apposition rate) / MS/BS (mineralizing surface) / Tb.N (trabecular number) / Tb.Sp (trabecular separation) / Tb.Th (trabecular thickness): L-1 vertebra, mean ± SEM; for BV/TV, trabecular thickness, trabecular number of L-1 vertebra (in words): second study; for MAR of L-1 vertebra (in words): compound 1a 0.01-1 mg/kg, EE2
Protocol: Oral administration was by gavage in a vehicle comprising 1 mL/kg of body weight of a 20% aqueous solution of hydroxypropyl-β-cyclodextrin. Compound 1a was administered by gavage in a vehicle of 1 mL/kg of body weight of a 20% aqueous solution of cyclodextrin. The estrogen-treated control animals were administered 0.1 mg/kg/day 17α-ethynyl estradiol by gavage.
Subcutaneous administration of PTH(1-34) was by injection of an acidified saline vehicle (0.001 N HCl and 2% heated-inactivated rat serum in physiological saline (Butler Co., Columbus, Ohio, USA).
For histomorphometry, L-1 vertebra were trimmed, using a low-speed diamond saw (Buehler Ltd., Lake Bluff, Ill.) and fixed in 70% ethanol. Specimens were stained for 4 days in Villanueva osteochrome bone stain (Polysciences Inc., Warrington, Pa.), destained, dehydrated in a graded series of alcohols, and defatted in acetone. L-1 vertebra were then infiltrated with methyl methacrylate (as described by Schenk et al. 1984) and embedded in a 75 ml: 19 ml: 2.5 g mixture of methyl methacrylate: dibutyl phthalate: benzoyl peroxide (Kodak, Rochester, N.Y.) and polymerized at room temperature. Longitudinal sections (4 and 8 μm) were cut on a Reichert-Jung 2065 microtome (Magee Scientific Inc., Dexter, Mich.). The 4 μm sections were stained with 6% silver nitrate (Von Kossa stain) before coverslipping; the 8 μm thick sections were mounted unstained for dynamic measurements. Sections were glued onto slides dipped in 0.5% gelatin, dried overnight, and coverslipped with Eukitt.
Histomorphometric measurements were made using an Optiphot-2 fluorescence microscope (Nikon, Melville, N.Y.) and a semi-automatic digitizing system (SummaSketch III, Summagraphics Co., Seymour, Conn.; KSS Image Analysis, KSS Scientific Consultants, Magna Utah) coupled to a PowerPC 7100/66 (Apple Computer, Cupertino, Calif.), using the image capture functions of NIH Image 1.59 (NIH, Bethesda, Md.). For L-1, the entire marrow region within the cortical shell was measured to derive trabecular bone parameters. Specifically, measurements were made of cancellous bone volume (BV/TV, %), trabecular thickness (Tb.Th, μm), number (Tb.N, #/mm) and separation (Tb.Sp, μm), mineralizing surface, mineral apposition rate, and bone formation rate, as previously described (Frost 1983; Jee et al. 1985; Parfitt et al., 1987).
In a second study, virgin Sprague-Dawley rats were bilaterally ovariectomized (except for the sham-operated group), the ovariectomized animals randomized, and allowed to lose bone for one month prior to treatment in the manner described above. The animal groups, each containing 7-8 animals, included sham-operated animals (SHAM); bilaterally ovariectomized animals (OVX); bilaterally ovariectomized animals treated with 0.01, 0.3 or 1 mg/kg/day of compound 1a, respectively, for three months; bilaterally ovariectomized animals treated subcutaneously with PTH(1-34) at a dose of 10 μg/kg/day for three months; bilaterally ovariectomized animals treated subcutaneously with PTH(1-34) at a dose of 10 μg/kg/day and orally with compound 1a at a dose of 0.3 mg/kg/day, both compounds administered for three months; bilaterally ovariectomized animals treated subcutaneously with PTH(1-34) at a dose of 10 μg/kg/day for forty-five days followed by gavage administration of vehicle for forty-five days; bilaterally ovariectomized animals treated subcutaneously with PTH(1-34) at a dose of 10 μg/kg/day for forty-five days followed by oral administration of only compound 1a at a dose of 0.3 mg/kg/day for forty-five days; and bilaterally ovariectomized animals treated with 17α-ethynyl estradiol administered orally at a dose of 0.1 mg/kg/day.

[2] = tested on: ovariectomized rats; assay: Uterine wet weight of ovariectomized rats; format: in vivo, Sprague-Dawley female rats; conditions: OVX rats; compound 1a 0.003-3 mg/kg; 17α-ethynyl estradiol 0.1 mg/kg
Protocol: Following treatment with the test compounds, the rats were anesthetized and subjected to cardiac puncture and euthanized by CO2 inhalation. Uteri were removed and wet weight were determined on a Mettler balance to evaluate ovariectomy and efficacy of treatment with estrogen. Blood samples were allowed to clot at 4° C. for 2 hr before centrifugation at 2,000 g for 10 min. Serum were collected and stored at −70° C. before analysis. Serum cholesterol was assayed using a high performance calorimetric assay (Boehringer Mannheim Biochemicals, Indianapolis, Ind.). Tibia and femora were removed, cleaned of soft-tissue, fixed in 50% ethanol/ saline, and stored at 4° C. Vertebra L1-6 were removed and analyzed by QCT, histomorphometry, and biomechanics.
In the first study, six-month old virgin Sprague-Dawley female rats weighing about 300 g each were maintained on a 12 hr light/12 hr dark cycle at 22° C. with ad lib access to food (TD 89222 diet containing 0.5% calcium and 0.4% phosphorus, Teklad, Madison, Wis., USA), Except for sham-operated control animals, bilateral ovariectomies were performed on the test animals. In the case of the sham-operated animals, the surgical ovariectomization technique was followed, but the ovaries were left intact to provide a control for assessing any effect which might be due to the surgical trauma. […]

[3] = 3 months: PTH (1-34) 10 μg/kg/day s.c., PTH + 1a 0.3 mg/kg/day oral, EE2 0.1 mg/kg/day oral
[4] = Cmpd 1a 0.01 mg/kg/day oral, 3 months
[5] = Cmpd 1a 0.3 mg/kg/day oral, 3 months
[6] = Cmpd 1a 1 mg/kg/day oral, 3 months
[7] = PTH (1-34) 10 μg/kg/day s.c. 45 days, then vehicle or 1a 0.3 mg/kg/day oral 45 days

## C#C[C@]1(O)CC[C@H]2[C@@H]3CCc4cc(O)ccc4[C@H]3CC[C@@]21C [EE2, 17α-ethynyl estradiol]
[1]; [3]
  BFR/BS (bone formation rate): 8.76 ± 1.99^o μ/d × 100
  BFR/TV (bone formation rate): 32.76 ± 6.9 %/y
  BV/TV (cancellous bone volume): 21.8 ± 4.1^s %
  MAR (mineral apposition rate): 0.58 ± .05^s.o μ/d
  MS/BS (mineralizing surface): 14.97 ± 3.07^o %
  Tb.N (trabecular number): 6.20 ± .66 #/mm
  Tb.Sp (trabecular separation): 127.5 ± 17.5 μ
  Tb.Th (trabecular thickness): 35.3 ± 5.6^s μ
[1]; continuous treatment
  BV/TV, trabecular thickness, trabecular number of L-1 vertebra (in words): little effect on BV/TV, trabecular thickness, or trabecular number
  MAR of L-1 vertebra (in words): lowered MAR to below OVX, Sham, and compound 1a
[2]
  uterine wet weight: increased uterine weight above OVX to Sham levels

## COc1ccc(-c2sc3cc(O)ccc3c2Oc2ccc(OCCN3CCCCC3)cc2)cc1 [Compound 1a, 6-hydroxy-2-(4-methoxyphenyl)-3-[4-(2-piperidin-1-ylethoxy)phenoxy]-benzo[b]thiophene]
[1]; [4]
  BFR/BS (bone formation rate): 11.45 ± 1.9 μ/d × 100
  BFR/TV (bone formation rate): 40.30 ± 11.41 %/y
  BV/TV (cancellous bone volume): 24.4 ± 5.9^s %
  MAR (mineral apposition rate): 0.72 ± .06 μ/d
  MS/BS (mineralizing surface): 15.90 ± 2.21^s.o %
  Tb.N (trabecular number): 5.77 ± 1.2^s #/mm
  Tb.Sp (trabecular separation): 137.6 ± 37^s μ
  Tb.Th (trabecular thickness): 42.4 ± 6 μ
[1]; [5]
  BFR/BS (bone formation rate): 9.48 ± 1.43^o μ/d × 100
  BFR/TV (bone formation rate): 35.51 ± 9.14 %/y
  BV/TV (cancellous bone volume): 22.3 ± 3^s %
  MAR (mineral apposition rate): 0.66 ± .11 μ/d
  MS/BS (mineralizing surface): 14.47 ± 1.78^o %
  Tb.N (trabecular number): 6.07 ± .87^s #/mm
  Tb.Sp (trabecular separation): 131 ± 23^s.o μ
  Tb.Th (trabecular thickness): 36.8 ± 3^s μ
[1]; [6]
  BFR/BS (bone formation rate): 9.44 ± 2.4^o μ/d × 100
  BFR/TV (bone formation rate): 29.94 ± 8.7 %/y
  BV/TV (cancellous bone volume): 22.1 ± 5.2^s %
  MAR (mineral apposition rate): 0.72 ± .08 μ/d
  MS/BS (mineralizing surface): 13.05 ± 2.44^s %
  Tb.N (trabecular number): 5.24 ± .82^s #/mm
  Tb.Sp (trabecular separation): 153.1 ± 35^s μ
  Tb.Th (trabecular thickness): 42.4 ± 7.3 μ
[1]; continuous treatment
  dynamic parameters MS/BS, MAR, BFR/BS, BFR/TV of L-1 vertebra (in words): decreased MS/BS and BFR in a dose-dependent manner to Sham and EE2 levels
  BV/TV, trabecular thickness, trabecular number of L-1 vertebra (in words): little effect on BV/TV, trabecular thickness, or trabecular number
  MAR of L-1 vertebra (in words): not different from OVX

## PTH: N-terminal 1-34 fragment of human parathyroid hormone, hPTH(1-34, Sequence ID No. 3); PTH/vehicle = 45 days PTH then vehicle
[1]; [3]
  BFR/BS (bone formation rate): 25.1 ± 5^s,o μ/d × 100
  BFR/TV (bone formation rate): 94.5 ± 29.7^s.o %/y
  BV/TV (cancellous bone volume): 38.9 ± 9^o %
  MAR (mineral apposition rate): 1.0 ± .11^s,o μ/d
  MS/BS (mineralizing surface): 24.82 ± 2.62^s,o %
  Tb.N (trabecular number): 6.07 ± .86^s #/mm
  Tb.Sp (trabecular separation): 104.1 ± 29^o μ
  Tb.Th (trabecular thickness): 63.8 ± 11^s,o μ
[1]; [7]
  BFR/BS (bone formation rate): 17.68 ± 5.9^s μ/d × 100
  BFR/TV (bone formation rate): 55.17 ± 20.3^s %/y
  BV/TV (cancellous bone volume): 20.1 ± 3.9^s %
  MAR (mineral apposition rate): 0.89 ± .09^s,o μ/d
  MS/BS (mineralizing surface): 19.62 ± 4.88^s %
  Tb.N (trabecular number): 5.16 ± .98^s #/mm
  Tb.Sp (trabecular separation): 160 ± 32^s μ
  Tb.Th (trabecular thickness): 39.4 ± 7^s μ
[1]; PTH (1-34) discontinued (PTH/v) or switched to compound 1a (PTH/0.3) at 45 days
  dynamic parameters MS/BS, MAR, BFR/BS, BFR/TV of L-1 vertebra (in words): lowered MS/BS, BFR/BS and BFR/TV to OVX levels
[1]; PTH (1-34) discontinued or switched to compound 1a at 45 days
  BV/TV and trabecular thickness of L-1 vertebra (in words): decreased BV/TV and trabecular thickness to below Sham
[1]; continuous treatment
  dynamic parameters MS/BS, MAR, BFR/BS, BFR/TV of L-1 vertebra (in words): increased MS/BS, MAR, BFR/BS and BFR/TV to significantly above Sham and OVX
  BV/TV, trabecular thickness, trabecular number of L-1 vertebra (in words): improved BV/TV and trabecular thickness above OVX
